≈ marks a conversion by molar mass, not a printed value. Like-named read-outs stand apart in the source and are kept apart here. Marks after values point to notes of the source that are not given here.
Key:
erythrocytes = test: Hemolytic activity; type: cell-based; details: X in M-β-CD; 0.1 mg/mL; released hemoglobin relative to 0.05% Triton X-100 control
From the text: (§1) Hemolytic activity and thrombogenicity are the primary parameters for evaluating the safety of medical formulations. The phenotypic sea urchin embryo assay developed by colleagues is a visual way to study the toxicity of formulations in vivo. The sea urchin and human genomes contain more than 7000 common genes, including orthologs associated with a number of human diseases. Therefore, sea urchins can be considered as a reliable and versatile model organism for studying the safety of new and existing cytotoxic formulations in vivo. Table 5 presents data on the % of erythrocyte hemolysis, the degree of whole blood thrombosis of apiol-PPh3 and analogues, and data of phenotypic sea urchin embryo assay. Thus, the non-toxicity of PPh3 derivatives of allylbenzenes for normal non-cancer cells, as well as the selectivity of action against cancer cells, is shown. The selectivity of cytotoxic action against cancer cells in comparison with normal cells can be explained by the fact that the PPh3- cation provides selective accumulation and reduction in the mitochondrial membrane potential of the transformed cancer cells. Cyclodextrin (M-β-CD) and heparin are non-toxic (and approved by the FDA for intravenous application).
(§2) The hemolytic activity and thrombogenicity of apiol-PPh3 and analogues were studied using an earlier published technique.

whole blood = test: Thrombogenicity (whole blood thrombosis); details: X in M-β-CD; 0.1 mg/mL; relative to control with microscopic glass particles
From the text: as §1, §2

A549 cells [1] = test: MTT assay, cytotoxic activity against A549; type: cell-based; details: Homo sapiens
Experimental: Concentrations of the active substance varied from 10^−2 to 10^−4 M. For MTT assay and biological experiments, substances in the concentration range from 10^−3 to 10^−9 M were studied by the dilution of initial ones in a cell growth medium or buffer.
Adenocarcinomic human alveolar basal epithelial cells A549 cell lines (Manassas, VA, USA) were cultured in RPMI-1640 medium, linear cells of the embryonic kidney human epithelium (HEK293T) were grown in DMEM medium as described earlier. Cell lines were obtained from Lomonosov Moscow State University Depository of Live Systems Collection and Laboratory of Medical Biotechnology, Institute of Biomedical Chemistry (Moscow, Russia).
(§3) The cytotoxic activity of paclitaxel, Apiol-PPh3 and analogues was determined using an MTT test. Paclitaxel-adjuvant synergism coefficients (SC) were calculated as CV (paclitaxel) × CV (alone adjuvant)/CV (combo paclitaxel + adjuvant), where CV represents the cell viability. The synergy coefficient can be interpreted as strong synergy (SC > 2), synergy (2 > SC > 1.2), indifference/additivity (1.2 > SC > 0.8), antagonism (0.8 > SC > 0.5), and inhibition (SC < 0.5), as described earlier.

sea urchin embryos = test: Phenotypic sea urchin embryo assay; type: in vivo; details: X in M-β-CD
From the text: as §1
Adult sea urchins, Paracentrotus lividus L. (Echinidae), were collected from the Mediterranean Sea on the Cyprus coast and kept in an aerated seawater tank and were used to study the cleavage alteration of Apiol-PPh3 and analogues. Experiments with sea urchin embryos comply with the requirements of biological ethics.

[2] = Solubility by UV spectroscopy (PBS, with and without M-β-CD); type: physicochemical; details: PBS
Experimental: On the contrary, their complexes with M-β-CD are soluble, and a clear peak in the UV spectrum is pronounced (225 nm). Based on UV spectra data in the presence of M-β-CD, the increase in solubility of apiol-PPh3 and analogues by a second order of magnitude is observed (Table 2).
The solubility of apiol and apiol-PPh3 (or analogues) in aqueous solution was determined by UV spectroscopy. UV spectra were recorded on the UltraSpec 2100 pro device (AmerSham Biosciences, Cambridge, UK) three times. The substances were dissolved in acetonitrile followed by recording the UV spectra at various cytostatics’ concentrations, and then we plotted calibration dependencies. Next, saturated solutions of substances in water were prepared, and the spectra of the aqueous solutions were recorded. Considering the extinction coefficients in water and acetonitrile to be approximately equal, the solubility was determined.

A549 cells [3] = test: MTT assay, synergy of adjuvants with paclitaxel against A549; type: cell-based, human; details: X − M-β-CD, SC = CV(paclitaxel) × CV(adjuvant)/CV(combo)
From the text: Apparently PPh3 derivatives effectively penetrate into cancer cells along a potential gradient, inhibit efflux proteins and mitochondrial enzymes, causing the apoptosis of cancer cells, with IC50 values being lower by two orders of magnitude than the corresponding allylbenzene (Table 3). […] For allylbenzenes, a synergy close to additivity (the cytostatic effect of adjuvant + paclitaxel is almost equal to the sum of their individual contributions) was observed; for PPh3 derivatives, a pronounced increase in the action of paclitaxel is characteristic (the cytostatic effect of adjuvant + paclitaxel is much higher (>) than the sum of their individual contributions). For apiol-PPh3, the most pronounced effect of increasing the activity of paclitaxel was observed (Figure 4b).
Figure 4 Viability of A549 cells in the presence of paclitaxel and allylbenzenes’ PPh3 derivatives in the form of complexes with M-β-CD (1:5 mol/mol). MTT assay. (a) Dose–effect graphs. (b) MTT assay results for 100 nM paclitaxel alone and combined with allylbenzenes’ PPh3 derivatives in the form of complexes with M-β-CD (1:5 mol/mol).
as §3

[4] = parameters: unit not given here; details: unmodified allylbenzenes; cited from earlier work
cancer cells = tested on: cancer cells; parameters: method as in PMID 35128247; details: dillapiol 25–50 µM; cited from earlier work
cytochrome P450 3A4 = details: read-out: IC50 cytochrome P450 3A4; cited from earlier work
HEK293T cells = test: FTIR spectroscopy of HEK293T cells during incubation with drug (penetration/adsorption); type: cell-based, human; details: 60 min incubation (apiol-PPh3 in M-β-CD) or pre-incubation (doxorubicin controls); 37 °C
From the text: The main cell structural units that contribute to the absorption of IR diapason can be assigned as follows (Figure 5): lipids of the cell membrane (2800–3000 cm^−1), proteins, especially transmembrane (1500–1700 cm^−1), phosphate groups of DNA (1240 cm^−1) and carbohydrates, including lipopolysaccharides (900–1100 cm^−1). Previously, we developed a technique for tracking the penetration and adsorption of the drug into cells using FTIR spectroscopy: dramatic changes in the intensity of the peaks of amide 1 and amide 2 indicate effective penetration of the drug into cells and vice versa.
Here, we present the real-time data of FTIR spectroscopy during the incubation of a suspension of HEK293T cells with apiol-PPh3 in M-β-CD (Figure 5). […] There is only a shift of the peak of amide 1 to the low-frequency region (inserts in Figure 5, the normalized intensity is shown) and amide 2 to the high-frequency region with the simultaneous appearance of the shoulder. This indicates the only adsorption of drug molecules on the cell surface, which is also confirmed by a weak increase in the intensity of the peaks at 2850–3000 cm^−1 corresponding to the valence vibrations of the CH2 groups (lipid bilayer). Thus, PPh3 derivatives show only marginal activity against normal cells.

[5] = A549, X in M-β-CD 1:5 mol/mol, MTT, read-out: −lg (IC50) of X in M-β-CD against A549 (converted)
[6] = A549, read-out: −lg (IC50) of X in M-β-CD against A549

SMILES | IC50 (A549 cells [1]; [5]) [µM] | Solubility in PBS [2] [µM] | IC50 (A549 cells [1]; [6]) [µM] | Synergy Coefficients of Adjuvants and PPh3–Adjuvants with Paclitaxel (A549 cells [3]) | −lg Kd (X − M-β-CD) [4] | other results
CC(=O)O[C@H]1C(=O)[C@@]2(C)[C@H]([C@H](OC(=O)c3ccccc3)[C@]3(O)C[C@H](OC(=O)[C@H](O)[C@@H](NC(=O)c4ccccc4)c4ccccc4)C(C)=C1C3(C)C)[C@]1(OC(C)=O)CO[C@@H]1C[C@@H]2O [Paclitaxel, paclitaxel, reference compound] | 0.631 | – | – | – | – | Hemolysis Index (erythrocytes): <0.5 (p = 0.012) %; Thrombosis Index (whole blood): 0.6 ± 0.1%; Concentration Causing Changes in Sea Urchin Embryos (sea urchin embryos): >4 *** μM
C=CCc1cc(OC)c(OC)c(OC)c1OC [Allyltetramethoxybenzene, allyltetramethoxybenzene, reference compound] | – | 160 ± 20 (≈ 38.1 µg/mL) | 316 | 1.4 ± 0.2 | 3.4 ± 0.3 | –
C=CCc1cc2c(c(OC)c1OC)OCO2 [Dillapiol, dillapiol] | 631 | – | – | 1.1 ± 0.1 | 2.7 ± 0.5 | effect on cell cycle / apoptosis of cancer cells (cancer cells): induced G0/G1 cell cycle arrest
C=CCc1cc(OC)c2c(c1OC)OCO2 [Apiol, 1-allyl-2,5-dimethoxy-3,4-methylenedioxybenzene] | – | 130 ± 10 (≈ 28.9 µg/mL) | 251 | 1.3 ± 0.2 | 2.6 ± 0.3 | IC50 (cytochrome P450 3A4): 7.9 µM
COc1cccc2c1C(=O)c1c(O)c3c(c(O)c1C2=O)C[C@@](O)(C(=O)CO)C[C@@H]3O[C@H]1C[C@H](N)[C@H](O)[C@H](C)O1 [doxorubicin, reference compound] | – | – | – | – | – | changes in FTIR amide I and II peak intensity of HEK293T cells (drug penetration) (HEK293T cells): Dramatic changes in the intensity of the amide 1 and amide 2 peaks
C=CCc1cc(OC)c2c(c1)OCO2 [Myristicin, myristicin, reference compound] | 1260 | – | – | 0.9 ± 0.2 | 3.5 ± 0.2 | solubility ([2]; aqueous buffer, thermodynamic from solid, read-out: Solubility in PBS): 30 ± 7 µM (≈ 5.77 µg/mL)

Source: publication PMC10747112, “Triphenylphosphine Derivatives of Allylbenzenes Express Antitumor and Adjuvant Activity When Solubilized with Cyclodextrin-Based Formulations” (Pharmaceuticals, 2023)
